Data taken from publication PMC5576918, “Small molecule inhibition of apicomplexan FtsH1 disrupts plastid biogenesis in human pathogens” (eLife, 2017).
Like-named read-outs stand apart in the source and are kept apart here.

Key:
P. falciparum [1] = assay: microbe, parasite or virus in culture; design: species or system P. falciparum asexual blood stages in human erythrocytes; Blood-stage parasite growth inhibition over two lytic cycles, YOYO-1 parasitemia by flow cytometry; settings: Plasmodium falciparum, Erythrocyte, 96 h, read-out: 96h
Experimental: (§1) For P. falciparum EC50 calculations, growth assays were performed in 96 well plates containing serial dilution of drugs in triplicate. Media was supplemented with 200 uM IPP as indicated. Growth was initiated with ring-stage parasites (synchronized with 5% sorbitol treatment) at 1% parasitemia and 1% hematocrit. […] Parasitized cells were stained with 50 nM YOYO-1 (Invitrogen) overnight at room temperature and the parasitemia was determined by flow cytometry (BD Accuri C6 Sampler). Data were analyzed by BD Accuri C6 Sampler software. […] A single natural product antibiotic, actinonin, matched our criteria (Figure 1a) ([Gordon et al., 1962]). […] Because isoprenoid precursor biosynthesis is the only essential function of the apicoplast in blood-stage P. falciparum, any disruption of the apicoplast, including complete loss of the organelle, can be rescued by addition of the isoprenoid precursor, isopentenyl pyrophosphate (IPP), in the growth media ([Yeh and DeRisi, 2011]). […] Compared to chloramphenicol, actinonin clearly had more rapid antimalarial activity.

P. falciparum [2] = assay: microbe, parasite or virus in culture; design: species or system P. falciparum asexual blood stages in human erythrocytes; Blood-stage parasite growth inhibition over one lytic cycle, YOYO-1 parasitemia by flow cytometry; settings: Plasmodium falciparum, Erythrocyte, 48 h, read-out: 48h
Experimental: as §1

PfFtsH1 = target: T1, PfFtsH1 (Plasmodium falciparum, UniProt Q8I526); assay: ATP-dependent FITC-casein proteolysis by purified recombinant PfFtsH1, fluorescence; type: biochemical
T1 construct: gene PF3D7_1239700; His6-SUMO-PfFtsH1_91-612-GST (AAA+ ATPase and peptidase domains, lacking transmembrane domain)
T1 sequence (Q8I526 entry or part of it): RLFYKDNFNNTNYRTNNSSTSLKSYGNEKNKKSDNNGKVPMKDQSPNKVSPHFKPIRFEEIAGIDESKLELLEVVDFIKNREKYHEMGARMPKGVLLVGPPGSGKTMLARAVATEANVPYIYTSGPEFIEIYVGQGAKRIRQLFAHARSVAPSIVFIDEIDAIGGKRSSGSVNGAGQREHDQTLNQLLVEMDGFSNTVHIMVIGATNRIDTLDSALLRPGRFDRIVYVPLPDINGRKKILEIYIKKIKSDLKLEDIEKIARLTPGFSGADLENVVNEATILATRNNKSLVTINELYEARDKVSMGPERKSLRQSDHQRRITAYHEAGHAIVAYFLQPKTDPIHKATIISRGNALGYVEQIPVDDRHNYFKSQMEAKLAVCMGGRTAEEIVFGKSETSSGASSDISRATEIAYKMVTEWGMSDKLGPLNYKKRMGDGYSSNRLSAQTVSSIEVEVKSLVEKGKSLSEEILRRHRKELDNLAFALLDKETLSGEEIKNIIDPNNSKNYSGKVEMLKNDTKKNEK

| IC50 (PfFtsH1) [µM] | SMILES | EC50 (P. falciparum [1]) [µM] | EC50 (P. falciparum [2]) [µM] |
| --- | --- | --- | --- |
|  | Nc1ccn([C@@H]2O[C@H](CO)[C@@H](O)[C@H]2F)c(=O)n1 [2'deoxy-2-F-cytidine] | > 200 | > 200 |
| 7.3 | CCCCC[C@H](CC(N)=O)C(=O)N[C@H](C(=O)N1CCC[C@H]1CO)C(C)C [actinamide] |  |  |
|  | CCCCC[C@H](CC(=O)NO)C(=O)N[C@H](C(=O)N1CCC[C@H]1CO)C(C)C [actinonin] | 2.7 | 3.2 |
|  | O=C(O)c1cn(C2CC2)c2cc(N3CCNCC3)c(F)cc2c1=O [ciprofloxacin] | 6 | 24 |
|  | CCn1cc(C(=O)O)c(=O)c2cc(F)c(N3CCNCC3)nc21 [enoxacin] | 5.7 | > 50 |
|  | C[C@H]1COc2c(N3CCN(C)CC3)c(F)cc3c(=O)c(C(=O)O)cn1c23 [levofloxacin] | 16 | 70 |
|  | CC(C)C(=O)OC[C@H]1O[C@@H](n2ccc(N)nc2=O)[C@](C)(F)[C@@H]1OC(=O)C(C)C [mericitabine] | > 200 | > 200 |
|  | CCn1cc(C(=O)O)c(=O)c2cc(F)c(N3CCNCC3)cc21 [norfloxacin] | 10 | 40 |
|  | CO[C@@H]1[C@@H](OC(N)=O)[C@@H](O)[C@H](Oc2ccc3c(O)c(NC(=O)c4ccc(O)c(CC=C(C)C)c4)c(=O)oc3c2C)OC1(C)C [novobiocin] | 36 | 40 |
|  | CO[C@H]1/C=C/O[C@@]2(C)Oc3c(C)c(O)c4c(O)c(c(/C=N/N5CCN(C)CC5)c(O)c4c3C2=O)NC(=O)/C(C)=C\C=C\[C@H](C)[C@H](O)[C@@H](C)[C@@H](O)[C@@H](C)[C@H](OC(C)=O)[C@@H]1C [rifampin] | 2 | 1 |
